Source: ChEMBL document CHEMBL4033749, “Synthesis and biological evaluation of 5-fatty-acylamido-1, 3, 4-thiadiazole-2-thioglycosides” (Bioorg Med Chem Lett, 2017)
In brackets after ≈: the same amount, converted by molar mass. Activity calls are given as the source filed them. The rule behind the calls is not given here.

Columns and labels:
Klebsiella pneumoniae = assay: Antibacterial activity Klebsiella pneumoniae MTCC 618 by agar well method; type: functional
Bacillus subtilis = assay: Antibacterial activity Bacillus subtilis MTCC 441 by agar well method; type: functional
Staphylococcus aureus = assay: Antibacterial activity Staphylococcus aureus MTCC 96 by agar well method; type: functional
[1] = system: Staphylococcus epidermidis; assay: Antibacterial activity Staphylococcus epidermidis MTCC 9041 by agar well method; type: functional
Escherichia coli = assay: Antibacterial activity Escherichia coli MTCC 443 by agar well method; type: functional
Pseudomonas aeruginosa = assay: Antibacterial activity Pseudomonas aeruginosa MTCC 1688 by agar well method; type: functional
SK-OV-3 = assay: Cytotoxicity against human SKOV3 cells incubated for 24 hrs by MTT asasy; type: functional, cell-based
HeLa = assay: Cytotoxicity against human HeLa cells incubated for 24 hrs by MTT asasy; type: functional, cell-based
MDA-MB-231 = assay: Cytotoxicity against human MDA-MB-231 cells incubated for 24 hrs by MTT asasy; type: functional, cell-based
DU-145 = assay: Cytotoxicity against human DU145 cells incubated for 24 hrs by MTT asasy; type: functional, cell-based
CHO-K1 = assay: Cytotoxicity against CHOK1 cells incubated for 24 hrs by MTT asasy; type: cell-based, Cricetulus griseus
[2] = Homo sapiens, HeLa, 24 h, read-out: IC50
[3] = Homo sapiens, MDA-MB-231, 24 h, read-out: IC50
[4] = Homo sapiens, DU-145, 24 h, read-out: IC50
[5] = Cricetulus griseus, CHO-K1, 24 h, read-out: IC50
[6] = Homo sapiens, SK-OV-3, 24 h, read-out: IC50

| Structure (SMILES) | MIC (Klebsiella pneumoniae) | MIC (Bacillus subtilis) | MIC (Staphylococcus aureus) | MIC [1] | MIC (Escherichia coli) | MIC (Pseudomonas aeruginosa) | IC50 (SK-OV-3; sk-ov-3) | IC50 (HeLa; [2]) [µM] | IC50 (MDA-MB-231; [3]) [µM] | IC50 (DU-145; du-145) | IC50 (CHO-K1; cho-k1) | IC50 (DU-145; [4]) [µM] | IC50 (CHO-K1; [5]) [µM] | IC50 (HeLa; hela) | IC50 (MDA-MB-231; mda-mb-231) | IC50 (SK-OV-3; [6]) [µM] |
| --- | --- | --- | --- | --- | --- | --- | --- | --- | --- | --- | --- | --- | --- | --- | --- | --- |
| CCCCCCCCCCCCCCCC(=O)Nc1nnc(S[C@@H]2O[C@H](CO)[C@H](O)[C@H](O)[C@H]2O)s1 | > 150 µg/mL | > 150 µg/mL | > 150 µg/mL | > 150 µg/mL | > 150 µg/mL | > 150 µg/mL | Not Active | 14.2 | 62.3 | Not Active | Not Active |  |  |  |  |  |
| CCCCCCCCCC(=O)Nc1nnc(S[C@@H]2O[C@H](CO)[C@H](O)[C@H](O)[C@H]2O)s1 | > 150 µg/mL | > 150 µg/mL | > 150 µg/mL | > 150 µg/mL | > 150 µg/mL | > 150 µg/mL | Not Active | 25.9 | 53.1 | Not Active | Not Active |  |  |  |  |  |
| C=CCCCCCCCCC(=O)Nc1nnc(S[C@@H]2O[C@H](COC(C)=O)[C@H](OC(C)=O)[C@H](OC(C)=O)[C@H]2OC(C)=O)s1 | inactive | inactive | inactive | inactive | inactive | inactive | Not Active | 77.7 | 60.9 |  |  | 22.9 | 16.3 |  |  |  |
| CCCCCCCCCCCC(=O)Nc1nnc(S[C@@H]2O[C@H](COC(C)=O)[C@H](OC(C)=O)[C@H](OC(C)=O)[C@H]2OC(C)=O)s1 | inactive | inactive | inactive | inactive | inactive | inactive | Not Active | 51.9 | 26.7 |  |  | 16.9 | 27.7 |  |  |  |
| CCCCCCCC/C=C\CCCCCCCC(=O)Nc1nnc(S[C@@H]2O[C@H](CO)[C@H](O)[C@H](O)[C@H]2O)s1 | > 150 µg/mL | > 150 µg/mL | > 150 µg/mL | > 150 µg/mL | > 150 µg/mL | > 150 µg/mL | Not Active | 8.8 | 43.6 | Not Active | Not Active |  |  |  |  |  |
| CC1(C)S[C@@H]2[C@H](NC(=O)Cc3ccccc3)C(=O)N2[C@H]1C(=O)O [PENICILLIN G] | 6.25 µg/mL (≈ 18.7 µM) | 1.56 µg/mL (≈ 4.67 µM) | 1.56 µg/mL (≈ 4.67 µM) | 3.12 µg/mL (≈ 9.35 µM) | 12.5 µg/mL (≈ 37.4 µM) | 12.5 µg/mL (≈ 37.4 µM) |  |  |  |  |  |  |  |  |  |  |
| CCCCCCCCCCCCCCCC(=O)Nc1nnc(S[C@@H]2O[C@H](COC(C)=O)[C@H](OC(C)=O)[C@H](OC(C)=O)[C@H]2OC(C)=O)s1 | inactive | inactive | inactive | inactive | inactive | inactive | Not Active | 58.3 | 25.4 |  |  | 30.1 | 90.4 |  |  |  |
| C=CCCCCCCCCC(=O)Nc1nnc(S[C@@H]2O[C@H](CO)[C@H](O)[C@H](O)[C@H]2O)s1 | > 150 µg/mL | > 150 µg/mL | > 150 µg/mL | > 150 µg/mL | > 150 µg/mL | > 150 µg/mL | Not Active | 58.3 | 80.6 | Not Active | Not Active |  |  |  |  |  |
| CO[C@@]12[C@H](COC(N)=O)C3=C(C(=O)C(C)=C(N)C3=O)N1C[C@@H]1N[C@@H]12 [MITOMYCIN] |  |  |  |  |  |  | Not Active |  |  | Not Active |  |  | 13.2 to 13.4 | Not Active | Not Active |  |
| CCCCCCCCCCCCCC(=O)Nc1nnc(S[C@@H]2O[C@H](CO)[C@H](O)[C@H](O)[C@H]2O)s1 | 25 µg/mL (≈ 49.4 µM) | 50 µg/mL (≈ 98.9 µM) | > 150 µg/mL | > 150 µg/mL | > 150 µg/mL | > 150 µg/mL | Not Active | 31 | 33.3 | Not Active | Not Active |  |  |  |  |  |
| CCCCCC(=O)Nc1nnc(S[C@@H]2O[C@H](COC(C)=O)[C@H](OC(C)=O)[C@H](OC(C)=O)[C@H]2OC(C)=O)s1 | inactive | inactive | inactive | inactive | inactive | inactive | Not Active | 19.8 | 25.4 | Not Active |  |  | 24.4 |  |  |  |
| CCCCCCCC/C=C\CCCCCCCCCCCC(=O)Nc1nnc(S[C@@H]2O[C@H](COC(C)=O)[C@H](OC(C)=O)[C@H](OC(C)=O)[C@H]2OC(C)=O)s1 | inactive | inactive | inactive | inactive | inactive | inactive | Not Active | 58.5 | 25.3 |  |  | 28.4 | 25.2 |  |  |  |
| CCCCCCCCCCCC(=O)Nc1nnc(S[C@@H]2O[C@H](CO)[C@H](O)[C@H](O)[C@H]2O)s1 | 12.5 µg/mL (≈ 26.2 µM) | 25 µg/mL (≈ 52.3 µM) | > 150 µg/mL | > 150 µg/mL | > 150 µg/mL | > 150 µg/mL | Not Active | 8.7 | 32 | Not Active | Not Active |  |  |  |  |  |
| CCCCCCCCCCCCCCCCCC(=O)Nc1nnc(S[C@@H]2O[C@H](CO)[C@H](O)[C@H](O)[C@H]2O)s1 | > 150 µg/mL | > 150 µg/mL | > 150 µg/mL | > 150 µg/mL | > 150 µg/mL | > 150 µg/mL | Not Active | 11.2 | 67.1 | Not Active | Not Active |  |  |  |  |  |
| CCCCCCCC(=O)Nc1nnc(S[C@@H]2O[C@H](CO)[C@H](O)[C@H](O)[C@H]2O)s1 | > 150 µg/mL | > 150 µg/mL | > 150 µg/mL | > 150 µg/mL | > 150 µg/mL | > 150 µg/mL |  | 50.8 | 30.8 | Not Active |  |  | 60.1 |  |  | 56 |
| COc1cccc2c1C(=O)c1c(O)c3c(c(O)c1C2=O)C[C@@](O)(C(=O)CO)C[C@@H]3O[C@H]1C[C@H](N)[C@H](O)[C@H](C)O1 [DOXORUBICIN] |  |  |  |  |  |  |  | 0.7 | 0.7 to 0.8 |  | Not Active | 0.7 to 0.8 |  |  |  | 0.7 to 0.8 |
| CCCCCCCC/C=C\CCCCCCCCCCCC(=O)Nc1nnc(S[C@@H]2O[C@H](CO)[C@H](O)[C@H](O)[C@H]2O)s1 | > 150 µg/mL | > 150 µg/mL | > 150 µg/mL | > 150 µg/mL | > 150 µg/mL | > 150 µg/mL | Not Active | 13.5 | 70.4 | Not Active | Not Active |  |  |  |  |  |
| CN[C@@H]1[C@H](O[C@H]2[C@H](O[C@H]3[C@H](O)[C@@H](O)[C@H](N=C(N)N)[C@@H](O)[C@@H]3N=C(N)N)O[C@@H](C)[C@]2(O)C=O)O[C@@H](CO)[C@H](O)[C@H]1O [STREPTOMYCIN] | 3.12 µg/mL (≈ 5.37 µM) | 6.25 µg/mL (≈ 10.7 µM) | 6.25 µg/mL (≈ 10.7 µM) | 3.12 µg/mL (≈ 5.37 µM) | 6.25 µg/mL (≈ 10.7 µM) | 1.56 µg/mL (≈ 2.69 µM) |  |  |  |  |  |  |  |  |  |  |
